This passage reports TGI and GI50 results from PubChem BioAssay (NCI).

Some test systems named below: UO-31 renal; HL-60(TB) leukemia; A549 NSCLC; SNB-19 CNS; SF-268 CNS; RPMI-8226 leukemia; COLO 205 colon; NCI-H23 lung; HOP-92 NSCLC; LOX IMVI melanoma; SF-295 CNS; SW-620 colon; OVCAR-5 ovarian; DLD-1 colon.
Holding throughout (assay): growth of human tumour cells (NCI), 48 h

Values joined by “and” are separate entries in the source; they are usually repeats but may differ in a detail not shown here. Equal entries are not always repeated.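 All cell lines were grown in 96-well plates and treated with compound for 48 hours. GI50 = concentration required for 50% inhibition of growth. TGI is the concentration that stops growth completely.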 Where a SMILES comes first, the peptide text is derived from it.

With `CC1=CC(C2/C(=N/O)C=C(C)CC2(C)C)C(O)C(C)(C)C1` (centres undefined), the TGI in the test with UO-31 renal was found to be 29 µM; with HL-60(TB) leukemia, 37.2 µM; in the test on A549 NSCLC it was 29.6 µM; in the test with SNB-19 CNS it was 29.5 µM; in the test on SF-268 CNS, 37.1 µM; in the test on RPMI-8226 leukemia, 33.6 µM. For the same compound, the TGI with COLO 205 colon came to 36 µM; in the test on NCI-H23 lung it was 32.8 µM; in the test on HOP-92 NSCLC it was 27.5 µM; with LOX IMVI melanoma it was 32.3 µM; in the test on SF-295 CNS it was 32.9 µM; in the test with SW-620 colon, 41.8 µM. Besides, in the test with OVCAR-5 ovarian, the TGI came out at 34.8 µM.
As for `CCOC(=O)c1csc(NC(=O)C(C)N2CCCCC2)n1` (centres undefined), the TGI in the test with UO-31 renal, in the test on HL-60(TB) leukemia, in the test with A549 NSCLC, in the test on SNB-19 CNS, in the test with RPMI-8226 leukemia and in the test with COLO 205 colon was over 100 µM in each case. Besides, the TGI in the test on NCI-H23 lung, with HOP-92 NSCLC, with LOX IMVI melanoma, in the test on SF-295 CNS, in the test with SW-620 colon and with OVCAR-5 ovarian was over 100 µM throughout.
As for `OCC1OC(n2cnc3c2NC=NC[C@H]3O)C(O)C1O` (some centres undefined), the TGI was over 450 µM in the test with UO-31 renal; 284 µM in the test on HL-60(TB) leukemia; over 450 µM with A549 NSCLC; over 450 µM in the test with SNB-19 CNS; over 450 µM in the test on SF-268 CNS; over 450 µM in the test on RPMI-8226 leukemia. Besides, the TGI is over 450 µM in the test with COLO 205 colon; over 450 µM in the test with DLD-1 colon; over 450 µM in the test on NCI-H23 lung; over 414 µM in the test on HOP-92 NSCLC; over 450 µM in the test on LOX IMVI melanoma; over 450 µM in the test with SF-295 CNS. Further, the TGI in the test on SW-620 colon and in the test with OVCAR-5 ovarian was over 450 µM in each case.
Regarding `COC(=O)C1OC(Oc2cc(O)c3c(=O)cc(-c4ccc(O)cc4)oc3c2)C(O)C(O)C1O` (centres undefined), the TGI in the test on UO-31 renal, in the test with HL-60(TB) leukemia, with A549 NSCLC, with SNB-19 CNS, with SF-268 CNS and in the test with RPMI-8226 leukemia was over 100 µM throughout. Moreover, the TGI in the test with COLO 205 colon, in the test on DLD-1 colon, in the test on NCI-H23 lung, in the test on HOP-92 NSCLC, in the test on LOX IMVI melanoma and with SF-295 CNS was over 100 µM in each case. Moreover, the TGI in the test on SW-620 colon and in the test with OVCAR-5 ovarian was over 100 µM in each case.
As to `CN(C)C(=O)NCCN1CCCCCc2ccccc21`, the TGI in the test on UO-31 renal, with HL-60(TB) leukemia, in the test on A549 NSCLC, with SNB-19 CNS, in the test with SF-268 CNS and with RPMI-8226 leukemia was over 100 µM in each case. In addition, the TGI with COLO 205 colon, with NCI-H23 lung, in the test on HOP-92 NSCLC, in the test on LOX IMVI melanoma, in the test with SF-295 CNS and in the test with SW-620 colon was over 100 µM each time. Further, in the test on OVCAR-5 ovarian, the TGI is over 100 µM.
For the compound `COc1ccnc2c1C(=O)c1nc3ccccc3c3ccnc-2c13`, the TGI with UO-31 renal is 0.894 µM; in the test with HL-60(TB) leukemia, 0.29 µM; in the test on A549 NSCLC, 2.02 µM; with SNB-19 CNS, 0.562 µM; in the test with RPMI-8226 leukemia, 0.526 µM; in the test with COLO 205 colon, 0.723 µM. Moreover, the TGI came to 1.37 µM with NCI-H23 lung, 5.47 µM in the test on LOX IMVI melanoma, 1.15 µM with SF-295 CNS and 2.73 µM with OVCAR-5 ovarian.
Turning to `O=C1NC(=O)C(CCO)(c2ccccc2)C(=O)N1`, the TGI in the test on UO-31 renal, with HL-60(TB) leukemia, with A549 NSCLC, with SNB-19 CNS, with SF-268 CNS and in the test on COLO 205 colon was over 100 µM each time. For the same compound, the TGI with DLD-1 colon is over 100 µM; in the test on NCI-H23 lung it was over 100 µM; with HOP-92 NSCLC, over 100 µM; with LOX IMVI melanoma, over 31.6 µM; with SF-295 CNS, over 100 µM; with SW-620 colon, over 100 µM. This compound displayed a TGI in the test on OVCAR-5 ovarian of over 100 µM.
As for `O=C(CC(c1ccccc1)N1CCCCC1)c1ccccc1` (centres undefined), the TGI with UO-31 renal was determined as 36.8 µM; in the test on HL-60(TB) leukemia, 33.7 µM; in the test with A549 NSCLC, 41.3 µM; in the test with SNB-19 CNS, 36.1 µM; in the test on SF-268 CNS it was 33.4 µM; in the test on RPMI-8226 leukemia it was 5.23 µM. For the same compound, the TGI in the test with COLO 205 colon is 37.9 µM; in the test with NCI-H23 lung, 31.6 µM; with HOP-92 NSCLC, 32.7 µM; with LOX IMVI melanoma it was 20.6 µM; with SF-295 CNS, 31.2 µM; in the test on SW-620 colon, 18.7 µM. This compound had a TGI with OVCAR-5 ovarian of 32.9 µM.
As to `C=CCn1c(=O)n(CC=C)c(=O)n(CC=C)c1=O`, the TGI in the test on UO-31 renal, with HL-60(TB) leukemia, in the test on A549 NSCLC, in the test with SNB-19 CNS, in the test on SF-268 CNS and in the test on RPMI-8226 leukemia was over 100 µM throughout. In addition, the TGI with COLO 205 colon, in the test with DLD-1 colon, in the test on NCI-H23 lung, with HOP-92 NSCLC, in the test on LOX IMVI melanoma and with SF-295 CNS was over 100 µM in each case. Besides, the TGI with SW-620 colon and with OVCAR-5 ovarian was over 100 µM in each case.
Turning to `O=c1c(-c2ccccc2)c(SCCCN2CCN(c3cccc(Cl)c3)CC2)n(-c2ccccc2)c(=S)n1-c1ccccc1`, the TGI in the test on HL-60(TB) leukemia, in the test with RPMI-8226 leukemia, in the test with COLO 205 colon, with NCI-H23 lung, in the test with HOP-92 NSCLC and in the test with LOX IMVI melanoma was over 100 µM in each case. Besides, the TGI in the test on SF-295 CNS, with SW-620 colon and with OVCAR-5 ovarian was over 100 µM in each case.
On to `C=C1C(=O)O[C@H]2[C@H]1[C@@H](OC(=O)C=C(C)C)CC1=C[C@@H](C[C@@]3(C)O[C@@H]23)OC1=O`, for which the TGI is 20.9 µM with UO-31 renal; 0.977 µM and 4.9 µM with HL-60(TB) leukemia; 63 µM and 39.7 µM in the test with A549 NSCLC; 55.3 µM in the test on SNB-19 CNS; 35.6 µM and 22.9 µM in the test on SF-268 CNS; 67.2 µM and 7.16 µM in the test with RPMI-8226 leukemia. In addition, the TGI in the test with COLO 205 colon was 2.49 µM and 4.17 µM; in the test with DLD-1 colon, 11.8 µM; in the test on NCI-H23 lung, 13.5 µM; in the test with HOP-92 NSCLC, 4.15 µM; with SF-295 CNS, 28.4 µM; in the test with SW-620 colon it was 2.77 µM. Also, the TGI in the test with OVCAR-5 ovarian was 32.1 µM and 49 µM. Also, the GI50 in the test with HL-60(TB) leukemia is 0.292 µM and 2.24 µM; in the test with SF-268 CNS, 17.5 µM and 5.11 µM; with RPMI-8226 leukemia, 0.81 µM and 2.61 µM; with COLO 205 colon, 0.993 µM and 2.27 µM; in the test on OVCAR-5 ovarian, 30 µM.
`CCC(C)C(NC(=O)C(CCCCN)NC(=O)C(NC(=O)C(CCC(N)=O)NC(=O)C(N)CCCNC(=N)N)C(C)CC)C(=O)NC(Cc1c[nH]c2ccccc12)C(=O)NC(Cc1ccccc1)C(=O)NC(CCC(N)=O)C(=O)NC(CC(N)=O)C(=O)NC(CCCNC(=N)N)C(=O)NC(CCCNC(=N)N)C(=O)NC(CCSC)C(=O)NC(CCCCN)C(=O)NC(Cc1c[nH]c2ccccc12)C(=O)NC(CCCCN)C(=O)NC(CCCCN)C(=O)N1CCCC1C(=O)NC(C)C(=O)NC(CCCCN)C(=O)NC(CCCNC(=N)N)C(=O)NC(CCCCN)C(=O)NC(CC(C)C)C(=O)NC(Cc1ccccc1)C(=O)NCC(=O)O` (centres undefined) (H-RQIKIWFQNRRMKWKKPAKRKLFG-OH; configuration not given here): the TGI with UO-31 renal was over 25 µM; in the test on HL-60(TB) leukemia, 17.6 µM; in the test on A549 NSCLC, over 25 µM; in the test on SNB-19 CNS, over 25 µM; in the test with SF-268 CNS, over 25 µM; in the test on RPMI-8226 leukemia it was 15.1 µM. Moreover, the TGI in the test on COLO 205 colon, in the test with NCI-H23 lung, in the test on HOP-92 NSCLC, with LOX IMVI melanoma, in the test on SF-295 CNS and in the test with SW-620 colon was over 25 µM throughout. In addition, in the test with OVCAR-5 ovarian, the TGI is over 25 µM.
As for `CCCCN1C=CN2c3nc4cc(C)c(C)cc4n3C(C(=O)OC)=C(C(=O)OC)C12` (centres undefined), the TGI with UO-31 renal, in the test on HL-60(TB) leukemia, in the test with A549 NSCLC, in the test on SNB-19 CNS, with SF-268 CNS and in the test with RPMI-8226 leukemia was over 100 µM in each case. For the same compound, the TGI in the test with DLD-1 colon, in the test on NCI-H23 lung, with HOP-92 NSCLC, in the test with LOX IMVI melanoma, in the test on SF-295 CNS and in the test on SW-620 colon was over 100 µM each time. The TGI in the test with OVCAR-5 ovarian was over 100 µM.
